Assay results taken from PubChem BioAssay (NCI).
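1) Cells in 96-well plates. 2) Compound, 48 h, 5 concentrations. 3) Linear interpolation between surrounding doses. 4) Unreached endpoint = highest concentration. Abbreviation: GI50, concentration required for 50% inhibition of growth. TGI: concentration producing complete growth inhibition.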

Columns and labels:
Experiment in all cases: NCI tumour cell line growth inhibition, 48 h
[1] = test system: TK-10 renal
[2] = test system: HCC-2998 colon
[3] = test system: SNB-19 CNS
[4] = test system: HCT-116 colon
[5] = test system: HOP-62 NSCLC
[6] = test system: 786-0 renal
[7] = test system: UO-31 renal
[8] = test system: SK-MEL-28 melanoma
[9] = test system: MDA-MB-435
[10] = test system: DU-145 prostate

Compound | TGI [1] [µM] | TGI [2] [µM] | TGI [3] [µM] | TGI [4] [µM] | TGI [5] [µM] | TGI [6] [µM] | TGI [7] [µM] | TGI [8] [µM] | TGI [9] [µM] | TGI [10] [µM] | GI50 [5] [µM]
N#CCCC(C#N)(C#N)CCC#N | > 100 | > 100 | > 100 | > 100 | > 100 | > 100 | > 100 | > 100 | – | – | –
O=c1[nH][nH]c(=O)n1Cc1ccccc1 | > 100 | > 100 | > 100 | > 100 | – | > 100 | > 100 | > 100 | > 100 | > 100 | –
CCOC(=O)/C(C1=NCCN1C)=C(\O)c1ccccc1 | – | > 100 | > 100 | > 100 | > 100 | > 100 | > 100 | > 100 | – | – | –
O=C1CC(n2ccnc2)c2c(Cl)sc(Cl)c21 (stereo not drawn) | 45.1 | – | 38.3 | 29.5 | 51.9 | > 37.9 | 27 | > 54.7 | 49.6 | 30.6 | –
C1=NN2C(c3ccccc3)=NOC2C2C(c3ccccc3)=NOC12 (stereo not drawn) | > 100 | > 100 | > 100 | > 100 | > 100 | > 100 | > 100 | – | – | > 100 | –
c1cc2c(cc1C1OCC3C(c4ccc5c(c4)OCO5)OCC13)OCO2 (stereo not drawn) | > 100 | > 100 | > 100 | > 100 | > 100 | > 100 | > 100 | > 100 | – | – | –
C#CN1C(=O)c2c(c(-c3ccccc3)c(-c3ccc(Oc4ccc(-c5c(-c6ccccc6)c6c(c(-c7ccccc7)c5-c5ccccc5)C(=O)N(C#C)C6=O)cc4)cc3)c(-c3ccccc3)c2-c2ccccc2)C1=O | > 100 | > 100 | > 100 | > 100 | > 100 | > 100 | > 100 | > 100 | – | – | –
COc1ccccc1N1CCN(S(=O)(=O)c2ccc(Cl)cc2)C1=N | > 100 | – | > 100 | > 100 | > 100 | > 100 | > 100 | > 100 | > 100 | > 100 | –
O=C(O)C12C3CCC(C3)C1(C(=O)O)C1CCC2C1 (stereo not drawn) | > 100 | > 100 | > 100 | > 100 | > 100 | > 100 | > 100 | > 100 | – | – | –
O=C(c1ccccc1)n1cc(/C=C/[N+](=O)[O-])c2ccccc21 | > 100 | – | 92.3 | 32 | > 100 | 39 | 66.1 | 33.6 | – | – | –
COC(=O)c1cc(/C=C/C(=O)Cc2ccccc2)cn1S(=O)(=O)c1ccccc1 | > 100 | > 100 | > 100 | > 100 | > 100 | > 100 | > 100 | – | – | > 100 | –
CC(C)CCNC(=O)c1ccc(CNC(=O)/C=C/c2ccc3ccccc3c2)cc1 | – | > 100 | > 100 | > 100 | > 100 | > 100 | > 100 | > 100 | > 100 | > 100 | –
CCOC(=O)/C(=C\c1c[nH]c2ccccc12)P(=O)(OCC)OCC | > 100 | > 100 | > 100 | > 100 | > 100 | 99.6 | – | 94.3 | > 100 | > 100 | –
Cc1c(-c2coc(-c3ccc([N+](=O)[O-])cc3)n2)c(=O)n(-c2ccccc2)n1C | > 100 | > 100 | – | > 100 | > 100 | > 100 | > 100 | > 100 | – | – | –
Nc1c(F)c(F)c2c(c1F)N(CCCCCl)c1ccccc1S2 | > 100 | > 100 | > 100 | > 100 | > 100 | > 100 | > 100 | > 100 | – | > 100 | –
CC1(C)N=C(C(N)=O)c2ncn(Cc3ccccc3)c2N1 | > 100 | > 100 | > 100 | > 100 | > 100 | > 100 | – | > 100 | > 100 | > 100 | –
COc1ccc2nc3cccc([N+](=O)[O-])c3c(NCCC(=O)O)c2c1 | > 10 | > 10 | > 10 | > 10 | > 10 | > 10 | – | > 10 | > 10 | > 10 | –
COc1ccc(S(=O)(=O)N/N=C(\C)CN2C(=O)c3ccccc3C2=O)cc1OC | > 100 | > 100 | > 100 | > 100 | > 100 | > 100 | > 100 | > 100 | – | – | –
O=c1[nH]c(=O)n([C@H]2C[C@@H](CO)[C@@H](O)C2)cc1I | > 100 | > 100 | > 100 | > 100 | > 100 | > 100 | > 100 | > 100 | – | – | –

Compound | TGI [1] [µM] | TGI [2] [µM] | TGI [3] [µM] | TGI [4] [µM] | TGI [5] [µM] | TGI [6] [µM] | TGI [7] [µM] | TGI [8] [µM] | TGI [9] [µM] | TGI [10] [µM] | GI50 [5] [µM]
O=[N+]([O-])C(C(Cl)=C(Cl)Cl)=C(N1CCCCC1)N1CCCCC1 | > 100 | > 100 | > 100 | > 100 | > 100 | > 100 | > 100 | > 100 | – | > 100 | –
COP12(OC)NC(=O)OC1(C(F)(F)F)c1ccccc1O2 (stereo not drawn) | > 100 | – | > 100 | > 100 | – | > 100 | – | > 100 | – | – | –
COc1cc(C2C(C(=O)NCc3ccccc3)=C(C)NC(C)=C2C(=O)NCc2ccccc2)ccc1O | > 100 | 51.6 | > 100 | > 100 | – | > 100 | > 100 | > 100 | – | – | –
O=C1CCC(=O)c2ccccc2N1 | > 100 | > 100 | > 100 | > 100 | > 100 | > 100 | > 100 | > 100 | – | – | –
CN1CCS(=O)(=O)NC(Cc2ccccc2)C(=O)N2CCCC2C1=O (stereo not drawn) | > 100 | > 100 | > 100 | > 100 | > 100 | > 100 | > 100 | > 100 | – | – | –
O=C1C(Cl)C(c2ccc(O)cc2)N1n1cnc2ccccc2c1=O (stereo not drawn) | > 100 | > 100 | > 100 | 33 | > 100 | > 100 | > 100 | 70.2 | – | – | –
O=c1cccccc1[O-].O=c1cccccc1[O-].O=c1cccccc1[O-].[Nd+3] | > 100 | > 100 | > 100 | 68.4 | 95.3 | > 100 | > 100 | – | – | – | 32
CN(C)CC1(Cc2ccccc2)CC/C(=C\c2ccccc2)C1=O (stereo not drawn) | > 100 | 40.7 | 63.3 | > 100 | > 100 | > 100 | > 100 | > 100 | – | – | –
NNC(=O)/C(NC(=O)c1ccccc1)=C(\N)c1cccc([N+](=O)[O-])c1 | > 100 | > 100 | > 100 | > 100 | > 100 | > 100 | > 100 | > 100 | – | – | –
COC(=O)C(=O)C(C(=O)OC)C(=O)C(=O)Nc1cc(Cl)c(C)cc1S(=O)(=O)O (stereo not drawn) | > 100 | > 100 | > 100 | > 100 | > 100 | > 100 | > 100 | > 100 | – | – | –
CCOC(=O)c1ccc(N=C2Sc3nc4ccccc4n3C2=Nc2ccc(C(=O)OCC)cc2)cc1 | 32.6 | > 100 | 25.2 | 19.2 | 46.5 | 24.5 | – | > 100 | > 100 | > 100 | –
c1ccc2cc(C3NCCc4[nH]cnc43)ccc2c1 (stereo not drawn) | 82.1 | > 100 | – | > 100 | > 100 | > 100 | > 100 | > 100 | – | – | –
CN1CCCS/C1=C1/SC(=S)N(c2ccccc2)C1=O | > 100 | – | > 100 | > 100 | > 100 | > 100 | > 100 | > 100 | – | – | –
N#Cc1ccc(C2OCC3CC=CCC3CO2)cc1 (stereo not drawn) | – | > 100 | > 100 | > 100 | > 100 | > 100 | > 100 | > 100 | – | – | –
N#CCCC1(CCC#N)S(=O)(=O)OCCOS1(=O)=O | > 100 | – | > 100 | > 100 | > 100 | > 100 | > 100 | > 100 | > 100 | > 100 | –
COc1cc2ccnc(C#N)c2cc1OCc1ccccc1 | > 100 | > 100 | > 100 | > 100 | > 100 | > 100 | > 100 | > 100 | – | – | –
COc1ccc(OC(=O)N2C/C(=C\c3ccccc3)C(=O)/C(=C/c3ccccc3)C2)cc1 | 44 | 8.76 | 16.6 | 1.19 | 21.4 | 7.96 | 23.6 | 4.97 | – | 65.1 | –
COc1cc2c(cc1NC(=O)c1ccccc1)c1c(n2S(=O)(=O)c2ccccc2)CCN(S(=O)(=O)c2ccccc2)C1 | – | > 100 | > 100 | > 100 | > 100 | > 100 | – | > 100 | > 100 | > 100 | –
